Legend:
[1] = Inhibition of BuChE in rat serum using butyrylthiocholine chloride as substrate measured after 15 mins by Ellman's method; details: 0.25 h
Acetylcholinesterase [2] = target: T1, Acetylcholinesterase (Rattus norvegicus, UniProt P37136); assay: Inhibition of AChE in rat cortex homogenates using acetylthiocholine chloride as substrate measured after 15 mins by Ellman's method; format: ADME
T1 sequence (P37136 whole entry): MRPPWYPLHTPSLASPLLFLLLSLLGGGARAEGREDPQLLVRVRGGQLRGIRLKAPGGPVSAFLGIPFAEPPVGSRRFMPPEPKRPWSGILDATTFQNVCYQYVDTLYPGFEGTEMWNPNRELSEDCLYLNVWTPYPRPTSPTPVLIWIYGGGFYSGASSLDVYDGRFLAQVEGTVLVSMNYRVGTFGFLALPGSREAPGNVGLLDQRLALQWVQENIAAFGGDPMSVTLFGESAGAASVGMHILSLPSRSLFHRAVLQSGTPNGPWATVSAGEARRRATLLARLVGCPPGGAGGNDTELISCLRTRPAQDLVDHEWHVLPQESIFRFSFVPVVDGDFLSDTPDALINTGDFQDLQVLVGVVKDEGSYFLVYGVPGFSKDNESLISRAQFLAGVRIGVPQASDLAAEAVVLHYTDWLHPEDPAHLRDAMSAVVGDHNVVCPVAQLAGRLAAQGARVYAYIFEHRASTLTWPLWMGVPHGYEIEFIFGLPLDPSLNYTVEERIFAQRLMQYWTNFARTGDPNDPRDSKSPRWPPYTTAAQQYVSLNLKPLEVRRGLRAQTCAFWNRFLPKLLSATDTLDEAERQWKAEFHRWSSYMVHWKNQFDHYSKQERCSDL

[3] = target: Amyloid-beta precursor protein (Homo sapiens) (UniProt P05067); assay: Inhibition of amyloid beta (1 to 42) (unknown origin) self-aggregation at 25 uM after 24 hrs by thioflavin-T fluorescence assay relative to control
Cholinesterase = Cholinesterase (Equus caballus, UniProt P81908); assay: Inhibition of equine serum BuChE using butyrylthiocholine chloride as substrate measured after 15 mins by Ellman's method
[4] = Selectivity index, ratio of IC50 for electric eel AChE to IC50 for equine serum BuChE
Acetylcholinesterase [5] = target: Acetylcholinesterase (Electrophorus electricus, UniProt O42275); assay: Inhibition of electric eel AChE using acetylthiocholine chloride as substrate measured after 15 mins by Ellman's method; format: ADME
[6] = Antioxidant activity assessed as inhibition of AAPH-induced peroxyl radical generation measured as trolox equivalent at 1 to 10 uM preincubated for 15 mins followed by AAPH addition measured every minute for 90 mins by ORAC-FL assay; format: functional
Acetylcholinesterase [7] = target: T1, Acetylcholinesterase; assay: Inhibition of AChE in rat cortex homogenates at 25 umol/l using acetylthiocholine chloride as substrate measured after 15 mins by Ellman's method; details: 0.25 h

Chain of Cholinesterase (P81908 whole entry): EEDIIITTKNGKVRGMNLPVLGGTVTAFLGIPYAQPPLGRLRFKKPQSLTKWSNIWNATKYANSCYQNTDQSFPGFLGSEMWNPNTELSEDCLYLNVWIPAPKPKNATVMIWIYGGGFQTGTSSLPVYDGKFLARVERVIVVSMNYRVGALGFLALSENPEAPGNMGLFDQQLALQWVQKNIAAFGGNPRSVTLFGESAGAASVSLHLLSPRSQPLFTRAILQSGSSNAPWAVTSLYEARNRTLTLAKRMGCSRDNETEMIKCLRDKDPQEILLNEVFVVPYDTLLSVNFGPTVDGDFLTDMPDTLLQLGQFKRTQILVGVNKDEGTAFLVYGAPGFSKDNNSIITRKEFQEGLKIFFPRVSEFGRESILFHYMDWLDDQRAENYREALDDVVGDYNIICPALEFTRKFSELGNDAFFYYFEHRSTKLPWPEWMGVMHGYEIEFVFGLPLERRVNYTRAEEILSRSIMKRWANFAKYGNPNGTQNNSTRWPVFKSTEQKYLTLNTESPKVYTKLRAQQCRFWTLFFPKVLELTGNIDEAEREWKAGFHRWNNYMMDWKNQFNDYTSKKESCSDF
Chain of Acetylcholinesterase (Electrophorus electricus, UniProt O42275) (O42275 whole entry): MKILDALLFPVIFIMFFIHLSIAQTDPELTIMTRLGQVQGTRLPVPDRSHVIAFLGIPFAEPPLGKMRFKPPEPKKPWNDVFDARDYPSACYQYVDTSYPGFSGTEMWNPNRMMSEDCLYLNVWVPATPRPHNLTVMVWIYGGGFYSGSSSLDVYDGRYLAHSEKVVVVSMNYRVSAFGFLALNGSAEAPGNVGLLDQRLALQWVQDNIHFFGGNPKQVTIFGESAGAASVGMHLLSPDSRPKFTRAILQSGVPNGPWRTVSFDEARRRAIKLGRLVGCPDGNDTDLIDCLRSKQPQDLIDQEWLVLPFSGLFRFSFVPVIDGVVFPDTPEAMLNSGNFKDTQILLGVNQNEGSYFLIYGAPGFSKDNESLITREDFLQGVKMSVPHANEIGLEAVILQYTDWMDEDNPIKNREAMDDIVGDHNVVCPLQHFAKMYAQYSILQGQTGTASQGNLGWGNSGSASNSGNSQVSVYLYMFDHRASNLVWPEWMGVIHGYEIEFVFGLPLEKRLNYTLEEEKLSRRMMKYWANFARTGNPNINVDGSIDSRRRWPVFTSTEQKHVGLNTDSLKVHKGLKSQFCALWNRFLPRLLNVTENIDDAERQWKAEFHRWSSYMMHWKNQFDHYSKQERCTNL
Chain of Amyloid-beta precursor protein (Homo sapiens) (P05067 whole entry): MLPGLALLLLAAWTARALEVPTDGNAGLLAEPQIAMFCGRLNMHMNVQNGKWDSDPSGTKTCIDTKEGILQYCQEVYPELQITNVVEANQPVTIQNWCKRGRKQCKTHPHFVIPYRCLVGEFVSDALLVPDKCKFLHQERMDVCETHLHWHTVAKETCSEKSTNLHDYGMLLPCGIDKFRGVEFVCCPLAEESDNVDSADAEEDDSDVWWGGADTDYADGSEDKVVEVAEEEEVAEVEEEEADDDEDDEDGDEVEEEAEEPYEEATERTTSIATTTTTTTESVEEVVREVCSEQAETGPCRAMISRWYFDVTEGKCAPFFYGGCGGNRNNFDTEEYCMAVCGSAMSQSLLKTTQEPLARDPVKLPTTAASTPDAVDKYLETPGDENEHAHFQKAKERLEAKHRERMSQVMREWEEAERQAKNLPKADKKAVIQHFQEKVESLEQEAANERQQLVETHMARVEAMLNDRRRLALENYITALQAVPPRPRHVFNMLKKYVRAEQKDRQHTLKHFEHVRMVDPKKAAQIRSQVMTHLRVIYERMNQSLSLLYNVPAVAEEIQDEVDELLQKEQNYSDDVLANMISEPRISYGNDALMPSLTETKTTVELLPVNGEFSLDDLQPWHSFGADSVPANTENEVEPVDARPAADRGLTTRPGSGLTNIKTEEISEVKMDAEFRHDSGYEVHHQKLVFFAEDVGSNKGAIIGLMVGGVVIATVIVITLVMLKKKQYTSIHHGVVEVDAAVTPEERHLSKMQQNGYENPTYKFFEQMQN

| SMILES | IC50 [1] [µM] | IC50 (Acetylcholinesterase [2]) [µM] | inhibition [3] [%] | IC50 (Cholinesterase) [µM] | Ratio IC50 [4] | IC50 (Acetylcholinesterase [5]) [µM] | Activity [6] [equiv] | inhibition at 25 µM (Acetylcholinesterase [7]) [%] |
| --- | --- | --- | --- | --- | --- | --- | --- | --- |
| COc1cc(/C=C/C(=O)N2CCC(Cc3ccccc3)CC2)ccc1OCCCCCCN1CCN(Cc2ccccc2)CC1 | 50.6 | 73.2 | 51.1 | 2.2 | 2.2 | 4.83 | 0.73 | – |
| COc1cc(/C=C/C(=O)N2CCC(Cc3ccccc3)CC2)ccc1OCCCCCN1CCN(c2ccccn2)CC1 | 57.3 | 58.5 | 51.5 | 1.52 | 6 | 9.12 | 0.45 | – |
| COc1cc(/C=C/C(=O)N2CCC(Cc3ccccc3)CC2)ccc1OCCCCCCN1CCN(c2ncccn2)CC1 | 68.6 | – | 42 | 0.68 | 19.7 | 13.4 | 0.51 | 15.2 |
| COc1cc(/C=C/C(=O)N2CCC(Cc3ccccc3)CC2)ccc1OCCCCN1CCN(Cc2ccccc2)CC1 | 41.3 | 56 | 54.6 | 0.39 | 6.5 | 2.53 | 0.67 | – |
| COc1cc(/C=C/C(=O)N2CCC(Cc3ccccc3)CC2)ccc1OCCCN1CCN(c2ncccn2)CC1 | 45.4 | 93.5 | 46.9 | 5.12 | 2.5 | 12.6 | 0.41 | – |
| COc1cc(/C=C/C(=O)N2CCC(Cc3ccccc3)CC2)ccc1OCCCCN1CCN(c2ccccn2)CC1 | 48.6 | 67.2 | 49.8 | 1.62 | 6.9 | 11.2 | 0.4 | – |
| COc1cc(/C=C/C(=O)N2CCC(Cc3ccccc3)CC2)ccc1OCCCCCN1CCN(Cc2ccccc2)CC1 | 61.5 | 79.8 | 55.9 | 2.23 | 1.2 | 2.62 | 0.66 | – |
| COc1cc(/C=C/C(=O)N2CCC(Cc3ccccc3)CC2)ccc1OCCCCCN1CCN(c2ncccn2)CC1 | 45.3 | 30.6 | 39.7 | 2.34 | 2.5 | 5.81 | 0.46 | – |
| COc1cc(/C=C/C(=O)N2CCC(Cc3ccccc3)CC2)ccc1OCCCCCCN1CCN(c2ccccn2)CC1 | 6.9 | – | 49.9 | 0.95 | 16.4 | 15.6 | 0.38 | 18.5 |

Source: ChEMBL document CHEMBL4011587, “Design, synthesis and evaluation of novel ferulic acid-O-alkylamine derivatives as potential multifunctional agents for the treatment of Alzheimer's disease” (Eur J Med Chem, 2017)
